This is an account of results in patent US20230151049A1, “Compounds Useful in HIV Therapy” (priority 2020, published 2023).

The series can be described thus: in vivo. The following applies: for concentration at 7 day: day 7. The text has this:
General Protocol for Prodrugs Rat PK Studies Conducted at ChemPartner, China
A total of three naïve male Wistar Han rats, 200-250 g, were received from Beijing VR Laboratory Animal Co. LTD. Following an acclimation period, the animals were assigned to the study based on acceptable health as determined by a staff veterinarian and catheter patency. Fasting of the animals before or after dosing was not required.
On Day 1, each animal received a single intramuscular injection of prepared test article at a target dose level of 20 mg/kg equivalent of EFdA and at a dose volume of 2 mL/kg. The injection sites were at gastrocnemius and identified with an indelible marker for daily monitoring during the study. The animals were manually restrained for dosing and were not sedated. The dose suspension was mixed well by inversion before each dose to ensure homogeneity. […] In addition, all animals are monitored twice daily by the veterinary staff for clinical abnormalities.
Blood samples were collected from the study animals as detailed in the sample collection Table 6 below
Each blood sample for PK (200 μL) was collected from tail vein. The blood was transferred to a tube containing NaF/Na2EDTA anticoagulant and inverted several times to mix. Draw 150 μL whole blood from the tube, add 150 uL 100 mM ammonium acetate, pH 4 buffer and mix well. The resulting blood samples were transferred to individual polypropylene tubes and immediately placed on dry ice until storage at nominally −80° C. prior to LC-MS/MS analysis.

Setting [1] is: day 63, single IM Example 11A 20 mg/kg equivalent of EFdA.
Setting [2] is: day 70, single IM Example 11A 20 mg/kg equivalent of EFdA.
[3] abbreviates: day 77, single IM Example 11A 20 mg/kg equivalent of EFdA.
The mark [4] stands for this setting: day 84, single IM Example 11A 20 mg/kg equivalent of EFdA.
The mark [5] stands for this setting: day 91, single IM Example 11A 20 mg/kg equivalent of EFdA.
The mark [6] stands for this setting: day 21, single IM Example 16A 20 mg/kg equivalent of EFdA.
Setting [7] is: day 28, single IM Example 16A 20 mg/kg equivalent of EFdA.
Setting [8] is: day 35, single IM Example 18A 54 mg/kg.
Where [9] appears, read: day 42, single IM Example 18A 54 mg/kg.
Where [10] appears, read: day 49, single IM Example 18A 54 mg/kg.
Setting [11] is: day 35, single IM Example 19A 55 mg/kg.
Where [12] appears, read: day 42, single IM Example 19A 55 mg/kg.
The mark [13] stands for this setting: day 49, single IM Example 19A 55 mg/kg.

Like-named read-outs stand apart in the source and are kept apart here.

On to `C#C[C@]1(COP(=O)(N[C@@H](Cc2ccccc2)C(=O)OCCCCCCCCCCCC)OCC(=O)OCCCCCCCCCCCC)O[C@@H](n2cnc3c(N)nc(F)nc32)C[C@@H]1O` (single isomer, unassigned) [Example 11A], for which the “Mean concentration of EFdA” value is, setting by setting: (day 21, single IM Example 11A 20 mg/kg equivalent of EFdA) “BQL (BQL = below quantification limit, 0.3-0.5 ng/mL for Example 11A and 0.1-0.3 ng/mL for EFdA)”; (day 28, single IM Example 11A 20 mg/kg equivalent of EFdA) “BQL (BQL = below quantification limit, 0.3-0.5 ng/mL for Example 11A and 0.1-0.3 ng/mL for EFdA)”; (day 35, single IM Example 11A 20 mg/kg equivalent of EFdA) “BQL (BQL = below quantification limit, 0.3-0.5 ng/mL for Example 11A and 0.1-0.3 ng/mL for EFdA)”; (day 42, single IM Example 11A 20 mg/kg equivalent of EFdA) “BQL (BQL = below quantification limit, 0.3-0.5 ng/mL for Example 11A and 0.1-0.3 ng/mL for EFdA)”; (day 49, single IM Example 11A 20 mg/kg equivalent of EFdA) “BQL (BQL = below quantification limit, 0.3-0.5 ng/mL for Example 11A and 0.1-0.3 ng/mL for EFdA)”; (day 56, single IM Example 11A 20 mg/kg equivalent of EFdA) “BQL (BQL = below quantification limit, 0.3-0.5 ng/mL for Example 11A and 0.1-0.3 ng/mL for EFdA)”. The “Mean concentration of EFdA” value is, setting by setting: under setting [1], “BQL (BQL = below quantification limit, 0.3-0.5 ng/mL for Example 11A and 0.1-0.3 ng/mL for EFdA)”; under setting [2], “BQL (BQL = below quantification limit, 0.3-0.5 ng/mL for Example 11A and 0.1-0.3 ng/mL for EFdA)”; under setting [3], “BQL (BQL = below quantification limit, 0.3-0.5 ng/mL for Example 11A and 0.1-0.3 ng/mL for EFdA)”; under setting [4], “BQL (BQL = below quantification limit, 0.3-0.5 ng/mL for Example 11A and 0.1-0.3 ng/mL for EFdA)”; under setting [5], “BQL (BQL = below quantification limit, 0.3-0.5 ng/mL for Example 11A and 0.1-0.3 ng/mL for EFdA)”. Further, the “Mean concentration of Example 11A” value under setting [1] was “BQL (BQL = below quantification limit, 0.3-0.5 ng/mL for Example 11A and 0.1-0.3 ng/mL for EFdA)”; the “Mean concentration of Example 11A” value under setting [2] is “BQL (BQL = below quantification limit, 0.3-0.5 ng/mL for Example 11A and 0.1-0.3 ng/mL for EFdA)”; the “Mean concentration of Example 11A” value under setting [3] is “BQL (BQL = below quantification limit, 0.3-0.5 ng/mL for Example 11A and 0.1-0.3 ng/mL for EFdA)”; the “Mean concentration of Example 11A” value under setting [4] was “BQL (BQL = below quantification limit, 0.3-0.5 ng/mL for Example 11A and 0.1-0.3 ng/mL for EFdA)”; the “Mean concentration of Example 11A” value under setting [5] was “BQL (BQL = below quantification limit, 0.3-0.5 ng/mL for Example 11A and 0.1-0.3 ng/mL for EFdA)”. For the same compound, for the setting “male, Wistar Han, rat, whole blood, intramuscular, day 1, single IM Example 11A 20 mg/kg equivalent of EFdA, read-out: Mean concentration of Example 11A”, the concentration at 1 day came out at 207 ng/mL. Further, the concentration at 7 day (male, Wistar Han, rat, whole blood, intramuscular, single IM Example 11A 20 mg/kg equivalent of EFdA, read-out: Mean concentration of Example 11A) worked out at 6.93 ng/mL. The concentration at 14 day (male, Wistar Han, rat, whole blood, intramuscular, day 14, single IM Example 11A 20 mg/kg equivalent of EFdA, read-out: Mean concentration of Example 11A) came out at 0.991 ng/mL. For the same compound, under “male, Wistar Han, rat, whole blood, intramuscular, day 21, single IM Example 11A 20 mg/kg equivalent of EFdA, read-out: Mean concentration of Example 11A”, the concentration at 21 day turned out to be 2.68 ng/mL. Where the note is “male, Wistar Han, rat, whole blood, intramuscular, day 28, single IM Example 11A 20 mg/kg equivalent of EFdA, read-out: Mean concentration of Example 11A”, the concentration at 28 day was 2 ng/mL. In addition, under “male, Wistar Han, rat, whole blood, intramuscular, day 35, single IM Example 11A 20 mg/kg equivalent of EFdA, read-out: Mean concentration of Example 11A”, the concentration at 35 day amounted to 1.35 ng/mL. In addition, the concentration at 42 day (male, Wistar Han, rat, whole blood, intramuscular, day 42, single IM Example 11A 20 mg/kg equivalent of EFdA, read-out: Mean concentration of Example 11A) is 1.03 ng/mL. In addition, the concentration at 49 day (male, Wistar Han, rat, whole blood, intramuscular, day 49, single IM Example 11A 20 mg/kg equivalent of EFdA, read-out: Mean concentration of Example 11A) is 0.929 ng/mL. Moreover, the concentration at 56 day (male, Wistar Han, rat, whole blood, intramuscular, day 56, single IM Example 11A 20 mg/kg equivalent of EFdA, read-out: Mean concentration of Example 11A) was found to be 0.95 ng/mL.
As for `C#C[C@]1(COP(=O)(N[C@@H](C)C(=O)OCCCCCCCCCCCCCCCCCCCCCC)Oc2ccccc2)O[C@@H](n2cnc3c(N)nc(F)nc32)C[C@@H]1O` (single isomer, unassigned) [Example 16A], the “Mean concentration of EFdA” value (day 1, single IM Example 16A 20 mg/kg equivalent of EFdA) was “BQL (BQL = below quantification limit, 0.3 ng/mL for both)”; the “Mean concentration of EFdA” value under setting [6] is recorded as “BQL (BQL = below quantification limit, 0.3 ng/mL for both)”; the “Mean concentration of EFdA” value under setting [7] is recorded as “BQL (BQL = below quantification limit, 0.3 ng/mL for both)”. Further, the “Mean concentration of Example 16A” value by setting is: (day 14, single IM Example 16A 20 mg/kg equivalent of EFdA) “BQL (BQL = below quantification limit, 0.3 ng/mL for both)”; under setting [6], “BQL (BQL = below quantification limit, 0.3 ng/mL for both)”; under setting [7], “BQL (BQL = below quantification limit, 0.3 ng/mL for both)”. For the same compound, the concentration at 1 day (male, Wistar Han, rat, in vivo, day 1, single IM Example 16A 20 mg/kg equivalent of EFdA, read-out: Mean concentration of Example 16A) turned out to be 3.05 ng/mL. Besides, the concentration at 7 day (male, Wistar Han, rat, in vivo, single IM Example 16A 20 mg/kg equivalent of EFdA, read-out: Mean concentration of Example 16A) amounted to 1.03 ng/mL.
As for `C#C[C@]1(COP(=O)(N[C@@H](Cc2ccccc2)C(=O)OCCCCCCCCCCCCCC)Oc2ccccc2)O[C@@H](n2cnc3c(N)nc(F)nc32)C[C@@H]1O` (single isomer, unassigned) [Example 18A], the “Mean concentration of EFdA” value runs as follows: (day 28, single IM Example 18A 54 mg/kg) “BQL (BQL = below quantification limit, 0.3 ng/mL for both)”; under setting [8], “BQL (BQL = below quantification limit, 0.3 ng/mL for both)”; under setting [9], “BQL (BQL = below quantification limit, 0.3 ng/mL for both)”; under setting [10], “BQL (BQL = below quantification limit, 0.3 ng/mL for both)”. For the same compound, the “Mean concentration of Example 18A” value by setting is: under setting [8], “BQL (BQL = below quantification limit, 0.3 ng/mL for both)”; under setting [9], “BQL (BQL = below quantification limit, 0.3 ng/mL for both)”; under setting [10], “BQL (BQL = below quantification limit, 0.3 ng/mL for both)”. Moreover, under “male, Wistar Han, rat, in vivo, day 1, single IM Example 18A 54 mg/kg, read-out: Mean concentration of Example 18A”, the concentration at 1 day worked out at 2.47 ng/mL. Moreover, the concentration at 7 day (male, Wistar Han, rat, in vivo, single IM Example 18A 54 mg/kg, read-out: Mean concentration of Example 18A) was determined as 12 ng/mL. Also, the concentration at 14 day (male, Wistar Han, rat, in vivo, day 14, single IM Example 18A 54 mg/kg, read-out: Mean concentration of Example 18A) is 1.44 ng/mL. In addition, the concentration at 21 day (male, Wistar Han, rat, in vivo, day 21, single IM Example 18A 54 mg/kg, read-out: Mean concentration of Example 18A) amounted to 0.947 ng/mL. Further, the concentration at 28 day (male, Wistar Han, rat, in vivo, day 28, single IM Example 18A 54 mg/kg, read-out: Mean concentration of Example 18A) stood at 0.614 ng/mL.
For `C#C[C@]1(COP(=O)(N[C@@H](Cc2ccccc2)C(=O)OCCCCCCCCCCCCCCC)Oc2ccccc2)O[C@@H](n2cnc3c(N)nc(F)nc32)C[C@@H]1O` (single isomer, unassigned) [Example 19A], the “Mean concentration of EFdA” value is, setting by setting: (day 28, single IM Example 19A 55 mg/kg) “BQL (BQL = below quantification limit, 0.3 ng/mL for both)”; under setting [11], “BQL (BQL = below quantification limit, 0.3 ng/mL for both)”; under setting [12], “BQL (BQL = below quantification limit, 0.3 ng/mL for both)”; under setting [13], “BQL (BQL = below quantification limit, 0.3 ng/mL for both)”. In addition, the “Mean concentration of Example 19A” value reads like this: under setting [11], “BQL (BQL = below quantification limit, 0.3 ng/mL for both)”; under setting [12], “BQL (BQL = below quantification limit, 0.3 ng/mL for both)”; under setting [13], “BQL (BQL = below quantification limit, 0.3 ng/mL for both)”. Moreover, the concentration at 1 day (male, Wistar Han, rat, in vivo, day 1, single IM Example 19A 55 mg/kg, read-out: Mean concentration of Example 19A) worked out at 2.37 ng/mL. The concentration at 7 day (male, Wistar Han, rat, in vivo, single IM Example 19A 55 mg/kg, read-out: Mean concentration of Example 19A) was 9.08 ng/mL. The concentration at 14 day (male, Wistar Han, rat, in vivo, day 14, single IM Example 19A 55 mg/kg, read-out: Mean concentration of Example 19A) came to 3.06 ng/mL. In addition, the concentration at 21 day (male, Wistar Han, rat, in vivo, day 21, single IM Example 19A 55 mg/kg, read-out: Mean concentration of Example 19A) is 1.45 ng/mL. In addition, the concentration at 28 day (male, Wistar Han, rat, in vivo, day 28, single IM Example 19A 55 mg/kg, read-out: Mean concentration of Example 19A) stood at 0.909 ng/mL.
